Read-outs that look alike come from different tables or passages of the source.
Target: T1, mGlyT-1b (Mus musculus, UniProt P28571)
T1 construct: host or cells: Flp-in-CHO
T1 sequence (P28571 1-651 isoform P28571-2): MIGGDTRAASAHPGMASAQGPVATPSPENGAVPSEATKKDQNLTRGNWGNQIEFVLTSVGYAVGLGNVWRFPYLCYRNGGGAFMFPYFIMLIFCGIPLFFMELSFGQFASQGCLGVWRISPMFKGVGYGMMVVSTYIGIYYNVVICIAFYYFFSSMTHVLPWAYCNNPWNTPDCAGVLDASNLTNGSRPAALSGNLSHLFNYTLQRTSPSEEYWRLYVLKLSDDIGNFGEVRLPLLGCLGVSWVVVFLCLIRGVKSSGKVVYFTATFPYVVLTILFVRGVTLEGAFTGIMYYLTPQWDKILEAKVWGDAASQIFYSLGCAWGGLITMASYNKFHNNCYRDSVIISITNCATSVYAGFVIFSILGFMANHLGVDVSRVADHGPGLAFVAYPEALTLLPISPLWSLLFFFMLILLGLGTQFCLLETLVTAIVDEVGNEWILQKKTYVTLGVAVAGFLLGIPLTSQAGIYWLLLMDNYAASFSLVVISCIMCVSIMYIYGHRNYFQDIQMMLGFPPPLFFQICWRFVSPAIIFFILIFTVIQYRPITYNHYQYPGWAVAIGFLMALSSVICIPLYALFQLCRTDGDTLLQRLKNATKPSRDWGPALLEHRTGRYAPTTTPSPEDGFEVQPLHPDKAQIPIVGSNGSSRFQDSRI
Experiment: Glycine uptake inhibition assay (mGlyT-1b)
Assay type: cell-based
Procedure: DMEM complete medium: Nutrient mixture F-12 (Gibco Life-technologies), fetal bovine serum (FBS) 5%, (Gibco life technologies), Penicillin/Streptomycin 1% (Gibco life technologies), Hygromycin 0.6 mg/ml (Gibco life technologies), Glutamine 1 mM Gibco life technologies) Uptake buffer (UB): 150 mM NaCl, 10 mM Hepes-Tris, pH 7.4, 1 mM CaCl2, 2.5 mM KCl, 2.5 mM MgSO4, 10 mM (+) D-glucose. Flp-inTM-CHO (Invitrogen Cat n° R758-07) cells stably transfected with mGlyT1b cDNA. Glycine Uptake Inhibition […]) On day 1 mammalian cells, (Flp-inTM-CHO), transfected with […] cDNA, were plated at the density of 40,000 cells/well in complete F-12 medium, without hygromycin in 96-well culture plates. On day 2, the medium was aspirated and the cells were washed twice with uptake buffer (UB). The cells were then incubated for 20 min at 22° C. with either (i) no potential competitor, (ii) 10 mM non-radioactive glycine, (iii) a concentration of a potential inhibitor. A range of concentrations of the potential inhibitor was used to generate data for calculating the concentration of inhibitor resulting in 50% of the effect (e.g. […] The plates were incubated with gentle shaking, and the reaction was stopped by aspiration of the mixture and washing (three times) with ice-cold UB. The cells were lysed with scintillation liquid, shaken 3 hours and the radioactivity in the cells was counted using a scintillation counter.

[1] = [3H]-glycine uptake in Flp-in-CHO cells stably transfected with mGlyT1b cDNA, 20 min preincubation at 22° C., read-out: IC50 (μM) at GlyT-1

C[C@H](Oc1ccc(S(C)(=O)=O)cc1C(=O)N1CCC(c2ccc(C(F)(F)F)cc2)C1)C(F)(F)F (mixture of isomers) [Example 2, rac-[5-Methanesulfonyl-2-((S)-2,2,2-trifluoro-1-methyl-ethoxy)-phenyl]-[3-(4-trifluoromethyl-phenyl)-pyrrolidin-1-yl]-methanone]
IC50 [1]: 0.22 µM

C[C@H](Oc1ccc(S(C)(=O)=O)cc1C(=O)N1CCC(Cc2ccc(C(F)(F)F)cc2)C1)C(F)(F)F (mixture of isomers) [Example 11, rac-[5-Methanesulfonyl-2-((S)-2,2,2-trifluoro-1-methyl-ethoxy)-phenyl]-[3-(4-trifluoromethyl-benzyl)-pyrrolidin-1-yl]-methanone]
IC50 [1]: 0.11 µM

CS(=O)(=O)c1ccc(OCC(F)(F)C(F)(F)F)c(C(=O)N2CCC(Cc3ccc(C(F)(F)F)cc3)C2)c1 (racemic) [Example 13, rac-[5-Methanesulfonyl-2-(2,2,3,3,3-pentafluoro-propoxy)-phenyl]-[3-(4-trifluoromethyl-benzyl)-pyrrolidin-1-yl]-methanone]
IC50 [1]: 0.09 µM

CS(=O)(=O)c1ccc(-c2ccc(F)cc2)c(C(=O)N2CCC(Cc3ccc(C(F)(F)F)cc3)C2)c1 (racemic) [Example 14, rac-(4′-Fluoro-4-methanesulfonyl-biphenyl-2-yl)-[3-(4-trifluoromethyl-benzyl)-pyrrolidin-1-yl]-methanone]
IC50 [1]: 0.5 µM

CS(=O)(=O)c1ccc(OCC2CCC2)c(C(=O)N2CCC(Cc3ccc(C(F)(F)F)cc3)C2)c1 (racemic) [Example 15, rac-(2-Cyclobutylmethoxy-5-methanesulfonyl-phenyl)-[3-(4-trifluoromethyl-benzyl)-pyrrolidin-1-yl]-methanone]
IC50 [1]: 0.24 µM

CS(=O)(=O)c1ccc(OC2CCCC2)c(C(=O)N2CCC(Cc3ccc(C(F)(F)F)cc3)C2)c1 (racemic) [Example 16, rac-(2-Cyclopentyloxy-5-methanesulfonyl-phenyl)-[3-(4-trifluoromethyl-benzyl)-pyrrolidin-1-yl]-methanone]
IC50 [1]: 0.32 µM

C[C@H](Oc1ccc(S(C)(=O)=O)cc1C(=O)N1CCC(COc2ccc(Cl)cc2)C1)C(F)(F)F (mixture of isomers) [Example 29, rac-[3-(4-Chloro-phenoxymethyl)-pyrrolidin-1-yl]-[5-methanesulfonyl-2-((S)-2,2,2-trifluoro-1-methyl-ethoxy)-phenyl]-methanone]
IC50: 0.2 µM

Cc1ccc(OCC2CCN(C(=O)c3cc(S(C)(=O)=O)ccc3O[C@@H](C)C(F)(F)F)C2)cc1 (mixture of isomers) [Example 30, rac-[5-Methanesulfonyl-2-((S)-2,2,2-trifluoro-1-methyl-ethoxy)-phenyl]-(3-p-tolyloxymethyl-pyrrolidin-1-yl)-methanone]
IC50 [1]: 0.27 µM

C[C@H](Oc1ccc(S(C)(=O)=O)cc1C(=O)N1CCC(COc2ccc(-c3ccccc3)cc2)C1)C(F)(F)F (mixture of isomers) [Example 31, rac-[3-(Biphenyl-4-yloxymethyl)-pyrrolidin-1-yl]-[5-methanesulfonyl-2-((S)-2,2,2-trifluoro-1-methyl-ethoxy)-phenyl]-methanone]
IC50 [1]: 0.45 µM

C[C@H](Oc1ccc(S(C)(=O)=O)cc1C(=O)N1CCC(COc2ccc(C#N)cc2)C1)C(F)(F)F (mixture of isomers) [Example 32, rac-4-{1-[5-Methanesulfonyl-2-((S)-2,2,2-trifluoro-1-methyl-ethoxy)-benzoyl]-pyrrolidin-3-ylmethoxy}-benzonitrile]
IC50: 0.21 µM

C[C@H](Oc1ccc(S(C)(=O)=O)cc1C(=O)N1CCC(COc2ccc([N+](=O)[O-])cc2)C1)C(F)(F)F (mixture of isomers) [Example 33, rac-[5-Methanesulfonyl-2-((S)-2,2,2-trifluoro-1-methyl-ethoxy)-phenyl]-[3-(4-nitro-phenoxymethyl)-pyrrolidin-1-yl]-methanone]
IC50 [1]: 0.17 µM

C[C@H](Oc1ccc(S(C)(=O)=O)cc1C(=O)N1CCC(COc2ccc(OC(F)(F)F)cc2)C1)C(F)(F)F (mixture of isomers) [Example 35, rac-[5-Methanesulfonyl-2-((S)-2,2,2-trifluoro-1-methyl-ethoxy)-phenyl]-[3-(4-trifluoromethoxy-phenoxymethyl)-pyrrolidin-1-yl]-methanone]
IC50 [1]: 0.13 µM

C[C@H](Oc1ccc(S(C)(=O)=O)cc1C(=O)N1CCC(COc2ccc(Cl)c(Cl)c2)C1)C(F)(F)F (mixture of isomers) [Example 36, rac-[3-(3,4-Dichloro-phenoxymethyl)-pyrrolidin-1-yl]-[5-methanesulfonyl-2-((S)-2,2,2-trifluoro-1-methyl-ethoxy)-phenyl]-methanone]
IC50 [1]: 0.13 µM

COc1cccc(OCC2CCN(C(=O)c3cc(S(C)(=O)=O)ccc3O[C@@H](C)C(F)(F)F)C2)c1 (mixture of isomers) [Example 37, rac-[5-Methanesulfonyl-2-((S)-2,2,2-trifluoro-1-methyl-ethoxy)-phenyl]-[3-(3-methoxy-phenoxymethyl)-pyrrolidin-1-yl]-methanone]
IC50 [1]: 0.17 µM
